Test results taken from patent US20240207265A1, “TREATMENT OF CNS DISEASES WITH sGC STIMULATORS” (Tisento Therapeutics Inc., priority 2021, published 2024).

Key:
[1] = Rat cerebrospinal fluid (CSF) pharmacokinetics; assay type: in vivo; details: male, Sprague-Dawley; rat CSF/unbound plasma, PO 3 mg/kg
Procedure: PK in rats was determined following oral dosing. For the oral (PO) experiments, a group of 6 male Sprague-Dawley rats with an indwelling catheter placed in the cisterna magna were used. The PO group was dosed with 3.0, or 10 mg/kg of a compound formulated as a solution in PEG400 or suspension in 0.5% Tween 80 and 0.5% Methylcellulose in water. PO doses were administered by oral gavage and delivered to the stomach using a syringe and gavage tube. Following oral dosage administration, the gavage tube was flushed with approximately 0.5 mL of water to ensure complete delivery of the full dose.
Plasma samples were collected as follows: samples of CSF and blood were collected at 1 hour, 2, and optionally at 4 hours post-dosing. CSF samples (0.05 mL) were collected through the intracisternal catheter. Blood samples (0.25 mL) were collected through tail nick sampling. These samples were kept on ice until processed for plasma. Blood samples were centrifuged at 3200 rpm for 5 minutes at approximately 5° C. within 1 hour of collection. Plasma was directly transferred to individual Eppendorf tubes (0.125 mL). Plug caps were placed on the tubes and the tubes frozen at approximately −70° C. and stored until analysis. Plasma and CSF was collected and analyzed for the presence of a compound.
The compound in question and the internal standard were extracted from plasma by precipitation and from CSF by either precipitation or dilution. Samples were analyzed using liquid chromatography (LC) with tandem mass spectrometric detection (MS/MS) using electrospray ionization. The standard curve ranged from 0.1 to 1000 ng/mL. Results of the compounds described herein in this assay are illustrated in Table G below (for a 10 mg/kg dose and/or 3 mg/kg of the compound). Compound concentrations from several animals were combined to give the geometrical mean at each specific dosage and timepoint.
Kp,uu is defined as the concentration ratio of unbound drug in CSF to unbound drug in plasma. Unbound drug in plasma (or free plasma concentration) is calculated by multiplying the total plasma concentration by the unbound fraction as determined by plasma protein binding. The CSF concentration is then divided by the free plasma concentration to determine the Kp,uu. (See e.g., Di et al., J. Med. Chem., 56, 2-12 (2013))

sGC = experiment: cGMP neuronal cell-based assay (rat primary neurons); details: rat primary hippocampal neurons, DETA-NO 10 μM or 30 μM, cGMP by LC-MS/MS; read-out: sGC Neuron EC50
Procedure: Rat primary neurons were isolated from fetuses of 18-day pregnant Sprague-Dawley females. The fetuses were collected in Hanks' balanced salt solution (HBSS) and brains were rapidly removed. The cerebral hippocampi were isolated and mechanically fragmented. Further tissue digestion was performed with 0.25% (wt/vol) trypsin solution in HBSS without Ca2+ and Mg2+ for 15 min at 37° C. After trypsination, cells were washed and resuspended in neurobasal medium supplemented with 0.5 mM L-glutamine, 12.5 uM glutamic acid, 2% B-27 and 100 U/mL penicillin, and 100 μg/mL streptomycin. Cells were plated at a density of 26×10^3 or 3×10^4 or 4×10^4 cells/well in a poly-D-lysine coated 384-well flat clear-bottom plate (Corning Cat No 354662). Cells were incubated 6-7 days at 37° C. in a humidified chamber with 5% CO2. Media was removed and cells were washed 1× with HBSS containing Ca2+ and Mg2+, and replaced with 40 uL HBSS containing 0.5 mM IBMX, and incubated for 15 minutes at 37° C. 10 uL of a 5× stock of test compounds with diethylenetriamine NONOate (DETA-NO) was added. Final concentration of DETA-NO was either 10 μM or 30 μM. Cells were incubated for 20 min at 37° C. Medium was removed, 50 uL of ice-cold 10% acetic acid was added, and incubated for 60 minutes at 4° C. Following centrifugation at 4° C. for 5 minutes at 1000×g to pellet cell debris, the supernatant was aspirated to a clean plate and the samples were analyzed for cGMP content. cGMP concentrations were determined from each sample using LC-MS/MS.
(§1) Concentration response data were analyzed using a 4-parameter fit (log (agonist) vs. response-variable slope). The EC50 was interpolated from the curve fit and is defined as the concentration at which the compound elicits 50% of its maximal response. When the experiment was carried out multiple times for a given compound, the geometrical mean of all experiments is reported.

sGC enzyme = experiment: cGMP GloSensor cell-based assay, 384-well format (HEK293); design: species or system human; details: HEK293 GloSensor 40F cGMP cells, 10 μM DETA-NONOate, geometrical mean; read-out: Glo EC50
Excerpt: Human embryonic kidney cells (HEK293) cells expressing GloSensor™ 40F cGMP (Part No: CS182801, Promega) were used to evaluate the activity of test compounds. The luminescent biosensors (engineered luciferase) that were incorporated into these cells detect cGMP formed by the compounds stimulating the sGC enzyme and emit luminescence.
cGMP GloSensor cells were maintained in Dulbecco's Modification of Eagle's Medium (DMEM) supplemented with fetal bovine serum (FBS, 10% final) and hygromycine (200 ug/ml). The day before assay, cells were plated in DMEM with 10% FBS in a 50 μL volume at a density of 1.5×10^4 cells/well in a poly-D-lysine coated 384-well flat white-bottom plate (Corning Cat No 35661). Cells were incubated overnight at 37° C. in a humidified chamber with 5% CO2. The next day, medium was removed and cells were replaced with 40 ul/well of GloSensor™, 2 mM (Promega Cat No E1291). Cells were treated for 90 minutes at 25° C. to allow the substrate to equilibrate in the cells. Test compounds and Diethylenetriamine NONOate (DETA-NONOate) was diluted to 3 mM (20×) in serum-free CO2 independent medium and serially diluted at 4× dilutions to create 5× dose curve from which 10 ul was added to the wells (x μM concentration for test compound solution and 10 μM concentration for DETA-NONOate solution; wherein x is one of the following final concentrations: 30 μM, 7.5 μM, 1.9 μM, 469 nM, 117 nM, 29.3 nM, 7.3 nM, 1.83 nM, 0.46 nM, 0.11 nM, 0.03 nM) For the kinetics studies, luminescense was measured right away for 0.2 sec per well with Envision (Perkin Elmer). For endpoint SAR screening, data were collected after 55 min incubation at room temperature.
as §1

SMILES | Kp uu at 1 h [1] | Kp uu at 2 h [1] | Kp uu at 4 h [1] | EC50 (sGC) [nM] | EC50 (sGC enzyme) [nM]
Oc1nc(-c2cn3ccnc3c(Cc3cc(F)cc(F)c3)n2)ncc1F [Compound I-7, 2-(8-(3,5-Difluorobenzyl)imidazo[1,2-a]pyrazin-6-yl)-5-fluoropyrimidin-4-ol] | – | – | – | ≤ 100 | 100 to 1000
Cc1cnc(-c2cn3ccnc3c(Cc3ccccc3F)n2)nc1O [Compound I-8, 2-(8-(2-fluorobenzyl)imidazo[1,2-a]pyrazin-6-yl)-5-methylpyrimidin-4-ol] | – | – | – | – | > 1000
Oc1nc(-c2cn3c(F)cnc3c(Cc3ccccc3F)n2)ncc1F [Compound I-9] | – | – | – | ≤ 100 | 100 to 1000
Oc1nc(-c2cn3ncnc3c(Cc3cccc(F)c3F)n2)ncc1F [Compound I-10, 2-(8-(2,3-Difluorobenzyl)-[1,2,4]triazolo[1,5-a]pyrazin-6-yl)-5-fluoropyrimidin-4-ol] | – | – | – | – | 100 to 1000
Oc1nc(-c2cn3ncnc3c(Cc3cccc(F)c3)n2)ncc1F [Compound I-11, 5-Fluoro-2-(8-(3-fluorobenzyl)-[1,2,4]triazolo[1,5-a]pyrazin-6-yl)pyrimidin-4-ol] | – | – | – | – | 100 to 1000
Oc1nc(-c2cn3ncnc3c(Cc3cc(F)ccc3F)n2)ncc1F [Compound I-12, 2-(8-(2,5-Difluorobenzyl)-[1,2,4]triazolo[1,5-a]pyrazin-6-yl)-5-fluoropyrimidin-4-ol] | – | – | – | ≤ 100 | 100 to 1000
Oc1nc(-c2cn3ncnc3c(Cc3cc(F)cc(F)c3)n2)ncc1F [Compound I-13, 2-(8-(3,5-Difluorobenzyl)-[1,2,4]triazolo[1,5-a]pyrazin-6-yl)-5-fluoropyrimidin-4-ol] | – | – | – | – | 100 to 1000

Second part, the compound after the results:

Kp uu at 1 h [1] | Kp uu at 2 h [1] | Kp uu at 4 h [1] | EC50 (sGC) [nM] | EC50 (sGC enzyme) [nM] | SMILES
≤ 1 | 1 to 2 | ≤ 1 | 100 to 1000 | 100 to 1000 | Oc1nc(-c2cn3ccnc3c(Cc3cccc(F)c3)n2)ncc1F [Compound I-1, 5-fluoro-2-(8-(3-fluorobenzyl)imidazo[1,2-a]pyrazin-6-yl)pyrimidin-4-ol]
– | – | – | ≤ 100 | ≤ 100 | Cc1c(F)cc(Cc2nc(-c3ncc(F)c(O)n3)cn3ccnc23)cc1F [Compound I-3, 5-Fluoro-2-(8-(3,5-difluoro-4-methylbenzyl)imidazo[1,2-a]pyrazin-6-yl)pyrimidin-4-ol]
– | – | – | ≤ 100 | ≤ 100 | Cc1ccc(Cc2nc(-c3ncc(F)c(O)n3)cn3ccnc23)cc1F [Compound I-6, 5-Fluoro-2-(8-(3-fluoro-4-methylbenzyl)imidazo[1,2-a]pyrazin-6-yl)pyrimidin-4-ol]
